{
  "source": "patent US20220267390A1",
  "about": "“MPS MODIFIED PEPTIDES AND USE THEREOF” (The Regents of the University of California, priority 2019, published 2022)",
  "key": {"primary IPF fibroblasts": {"tested_on": "primary IPF fibroblasts", "assay": "Combination of nintedanib and MPS peptide, cell viability by MTT, Chou and Talalay CI", "assay_type": "cell-based, human", "settings": "nintedanib 62.5-2000 nM and/or MPS 6.25-200 μM, 72 hours", "method": "FIGS. 12A-12E: (FIGS. 12A-12B) Combinatorial effect of MPS peptide with nintedanib on fibroblasts isolated from two IPF patients. Cells were treated with various closes of nintedanib (62.5-2000 nM) and/or MPS peptide (6.25-200 μM) for 72 hours, respectively. After single ([…]) or combined ([…]) treatment, cell viability was determined by MTT assays. (FIG. 12C) The Chou and Talalay CI (combination index) method was utilized to evaluate the therapeutic interactions between nintedanib and MPS peptide using the Calcusyn software. Gray line, additive effect of the combination of MPS peptide and the drug is represented at CI=1. (FIG. 12D) Cells were individually treated with 1 μM nintedanib, 100 μM MPS peptide or combinations of 1 μM nintedanib and 100 μM MPS peptide. After 48 hours, cell viability was determined by the trypan blue exclusion assay (n+3; *, p<0.05). […] Molecular basis of MPS peptide and its potential for increasing nintedanib efficacy. […] A kinetic assay confirmed that this peptide binds PIP2 with a dissociation constant of 17.64 nM (FIG. 10B). As expected, a decrease of PIP3 pools in whole cell lysates of MPS-treated IPF fibroblasts was observed (FIG. 10C), supporting the notion that MPS peptide is able to inhibit AKT activation through trapping PIP2. […]"}, "[1]": {"tested_on": "normal human epithelial cells", "settings": "earlier work of Applicant (refs 14, 16); cited from earlier work"}, "LG704 oncospheres": {"tested_on": "LG704 oncospheres", "assay": "RNA-seq of LG704 oncospheres", "assay_type": "cell-based, human", "settings": "50 μM", "method": "These genes were then analyzed with GSEA to determine which functional pathways were most affected by MARCKS. Right, Heat map of cancer-stemness markers associated with MARCKS activity.\nTargeting the MARCKS PSD is associated with inhibition of stem-like cell properties. In light of the importance of the PSD in the functionality of MARCKS protein, Applicant designed a 25-mer MPS peptide to mimic the MARCKS phosphorylation site domain (PSD). […] Applicant's initial studies have shown that elevation of phospho-MARCKS in lung cancer spheres acted in parallel with increased stemness markers, such as CD133, Oct3/4, SOX2 and Nanog (data not included). The oncospheres were derived from high MARCKS-expressing lung cancer cell lines (H1975 and CL1-5) and primary lung cancer cells (LG704 and LC3: pleural effusion cells isolated from patients with advanced stage) in non-adherent serum-free culture conditions as described previously^30-32. Flow cytometry confirmed that ˜80% of LG704 oncosphere cells are CD133-positive, a major lung CSCs marker. […] Through a comparison of transcriptome profiling between PBS- and MPS-treated LG704 oncospheres by RNA-seq, Applicant identified a total of 352 coding genes altered by MARCKS inhibition (FIG. 15, left). […] The sphere-forming ability was assessed by counting the number and size of tumor spheres (oncospheres) under a microscope. […]"}},
  "note": "Where no end group is shown, it is not given here.",
  "data": [
    {"sequence": "KKKKKRFSFKKSFKLSGFSFKKNKK [MPS peptide]", "values": [
      {"measurement": "Cell viability", "setting": "primary IPF fibroblasts", "result": "decreased"},
      {"measurement": "cytotoxic effect on normal human epithelial cells", "setting": "[1]", "result": "no cytotoxic effect"},
      {"measurement": "cancer stemness genes (ABCC8, CDH5, PROM1 (CD133), ALDH1L1, FGFR2)", "setting": "LG704 oncospheres", "result": "decreased"}
    ]}
  ]
}
